These results are taken from US20030157084A1, “Methods for preparing purified prostaglandin E synthase” (priority 2001, published 2003).

Data set [1] deals with T1, purified His6-hPGES (Homo sapiens, UniProt O14684).
T1 sequence (O14684 1-152): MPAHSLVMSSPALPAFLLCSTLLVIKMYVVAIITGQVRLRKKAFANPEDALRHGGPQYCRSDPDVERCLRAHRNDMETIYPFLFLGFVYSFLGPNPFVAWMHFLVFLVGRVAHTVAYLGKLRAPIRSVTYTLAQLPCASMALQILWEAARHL
As to the kind of experiment: Glutathione transferase (GST) activity of purified His6-hPGES with CDNB. The class given is biochemical. Particulars: purified His6-hPGES incubated with LTA4. Further details: made in house; host or cells: E. coli BL21(DE3) with pLysSL. On the procedure:
Glutathione transferase (GST) activity (glutathione conjugation) was assayed with the classical model substrate for GSTs, p-chloro-2,4-dinitrobenzene (CDNB). […] Formation of product was detected at 340 nm (molar absorption coefficient for the product, GS-DNB, is 9.6 mM^−1 cm^−1).

Data set [2] concerns the target T1, purified His6-hPGES. Briefly: LTC4 synthase activity of purified His6-hPGES with LTA4. The class given is biochemical. Further details: made in house; host or cells: E. coli BL21(DE3) with pLysSL. Particulars: 37 ° C.; up to 100 μg/ml enzyme, 30 μM LTA4, 10 mM GSH, pH 7.4.
The test system of another data set is A549 cells. Briefly: Induction of PGE synthase and cyclooxygenase-2 in A549 cells. The class given is cell-based. Particulars: IL-1β 1 ng/ml. On the procedure:
Microsomal fractions of A549 cells cultured with or without IL-1 β 1 ng/ml) for 0, 12, 24, 36 or 72 hours were subjected to SDS-PAGE and Western blot analysis. As positive control, the membrane fraction from bacteria expressing human PGE synthase was included. In all lanes of the gel, 10 μg of total protein was analyzed, except for the human PGE synthase where 2 μg was loaded. The Western blot was then incubated with antipeptide antiserum against PGE synthase. The blot was then stripped and incubated with antiserum against COX-2.
In order to study the possible correlation between the result from the Western blot and PGE synthase activity, the corresponding microsomes were incubated in the presence of PGH2 and reduced glutathione as described above. Briefly, microsomes (0.03 mg/ml) were incubated with PGH2 (11 μM) for 30 seconds at 0° C., followed by extraction and analysis by RP-HPLC. […] In addition, no corresponding activity was detected in the cytosolic fractions.

Data set [3] in a line: Kinetic properties of other enzymes with PGE synthase activity (literature). In kind it is biochemical. Particulars: cytosolic PGES versus His6-hPGES.
The conditions of data set [4]: 24° C.; Tanioka et al. (2000); cited from earlier work.

Entries after “also recorded” stand apart in the source; their conditions may differ.

On to `CCCCC/C=C\C\C=C/C=C/C=C/[C@@H]1O[C@H]1CCCC(=O)O` [LTA4, leukotriene (LT) A4], for which, on purified His6-hPGES [1], the “GST activity after incubation of the enzyme with LTA4” value is reported as “no GST activity could be detected”. Besides, the “Specific activity (LTC4 synthase activity)” value on purified His6-hPGES [2] is “No activity above background could be detected; also recorded: Not detectable above background”.
For “IL-1β: proinflammatory cytokine interleukin-1β, added to A549 cells at 1 ng/ml”, the “COX-2 and PGE synthase protein expression (Western blot)” value in the data set on A549 cells (microsomal fractions, 0-72 hours) was “tandem upregulation of COX-2 and PGE synthase proteins”. Also, the “PGE synthase activity in microsomes” value in the data set with A549 cells (up to 72 hours, microsomes 0.03 mg/ml, PGH2 11 μM, 30 seconds at 0° C.) was “increase over time”.

B1: Cytosolic PGES LPS-induced: enzyme with PGE synthase activity, Rat, brain (Tanioka et al. 2000); recently identified cytosolic PGES (protein, UniProt P83868 1-160, looked up)
Prostaglandin E synthase 3: MQPASAKWYDRRDYVFIEFCVEDSKDVNVNFEKSKLTFSCLGGSDNFKHLNEIDLFHCIDPNDSKHKRTDRSILCCLRKGESGQSWPRLTKERAKLNWLSVDFNNWKDWEDDSDEDMSNFDRFSEMMDHMGGDEDVDLPEVDGADDDSQDSDDEKMPDLE
Take B1: in data set [3], the “Vmax compared with specific activity of purified His6-hPGES, times lower” value is given as “about 1,000 times”. For the same molecule, in data set [4], the “published Vmax” value is 0.19 µmol/min/mg.
